Source: patent US20110123623A1, “RHAMNOLIPID MECHANISM” (priority 2009, published 2011)
Read-outs that look alike come from different tables or passages of the source.

Experiments:
female and male mice = experiment: Blood findings after one single i/v dose; assay type: in vivo, mouse; settings: 75 mg/kg single i/v dose
Experimental: Blood findings in female and male mice treated i/v with one single dose of 75 mg/kg of Di-rhamnolipid W3CTS
Monocytes were increased in treated mice up to 100% after 4th day and 29th

[1] = system: normal Sprague-Dawley rats; experiment: Full-thickness burn wounds, topical treatment; assay type: in vivo, rat
Experimental: The effects of Di-rhamnolipid W3CTS on full-thickness burn wounds in normal Sprague-Dawley rats.
Di-rhamnolipid W3CTS was prepared in a eucerine ointment applied topically on full-thickness burn wounds in normal Sprague-Dawley rats covering 5% of the whole skin area. The rate of wound closure was measured over the period of 45 days. The collagen content was evaluated microscopically, by performing densitometric analysis on Verhoeff's stained histopathological slides of wound biopsies taken at the end of 45th day of di-rhamnolipid treatment. The treatment of full thickness-burn wounds covering 5% of the whole body skin area with topical applications (2 per day) of 0.1% di-rhamnolipid in eucerine ointment accelerated the closure of wounds on day 21 of the treatment by 32% compared to the control (p<0.05). […] The results of this study raise the possibility of potential efficacy of di-rhamnolipid in accelerating normal wound healing and perhaps in overcoming defects associated with healing failure in chronic wounds.

[2] = system: female Swiss-Webster mice; assay type: in vivo; settings: for MORTAL. / SIGNIFICANT FINDINGS: 7 days
Experimental: Multi-dose toxicity study of Di-rhamnolipid W3CTS administered subcutaneously in female Swiss-Webster mice for 7 days recovery period. The effects of 7 daily subcutaneous injections of the 99.3% pure Di-rhamnolipid W3CTS, followed by 7-day recovery period, were determined in female Swiss-Webster mice. Five groups (3 mice per group) were administered W3CTS doses at 0.012; 1, 2; 60 and 120 mg/kg/day and vehicle. All animals were observed and weighed throughout the study for clinical signs of toxicity including skin injection sites. On study Day 13 (seven days after last injection, 6 days for group 5) all animals were euthanized. The thymus, liver, kidneys, spleen, heart and lungs were weighed and preserved.
No mortality occurred at any dose level. […] Abnormal clinical observations at some animals at groups (60 and 120 mg/kg) were limited to skin lesions at the injection sites. All skin lesions were healing at termination.
At necropsy, two animals from group 120 mg/kg had moderate enlargement of the spleen and liver and adhesions between liver, spleen, kidneys and peritoneum were seen also in one animal (See Table 1).
Histopathology of spleen, thymus, and liver and selected skin site lesions was performed on tissues from high dose group animals and one control. […] Histopathologic features of skin lesions included evidence of chronic active inflammation, co-existing with progressing ulceration and/or healing.

[3] = system: Swiss-Webster female mice; experiment: TPA/pyr induced acute dermal ear inflammation (Part B); assay type: in vivo, mouse
Experimental: Effects of Di-rhamnolipid W3CTS on TPA/pyr induced acute inflammation in the ears of Swiss-Webster female mice.
The aim of this study was two-fold. In Part A the potential of a single topical application of W3CTS to cause acute cutaneous irritation (up to 24 hours) was measured in a mouse ear assay system. […] The aim of Part B was to determine the effects of a single topical administration of W3CTS on acute dermal inflammation induced by TPA/pyr, Part B was designed to differentiate the ability of Di-rhamnolipid W3CTS at concentration 1 mg/ml to prevent, inhibit or reverse induced ear inflammation.
The time of maximal reduction of inflammation was dependent on the time of treatment, with respect to induction. The effect of Di-rhamnolipid W3CTS was moderate (up to 32% decrease in inflammation) but sustained. […] Post treatment reversed established inflammation by 32% at 11 hours. […] It may be possible to increase the anti-inflammatory effect of Di-rhamnolipid W3CTS by use of a different dose formulation, or by repeated treatments.

[4] = system: neonatal human keratinocytes; experiment: Neonatal human keratinocyte cell culture (proliferation, viability, apoptosis); assay type: cell-based
Experimental: On the contrary, Di-rhamnolipid W3CTS in the presence of serum and at high concentration of calcium increased the proliferation and the viability of keratinocytes and decreased the caspase activity. At the concentration of 50 μg/ml, Di-rhamnolipid W3CTS maximally stimulated the proliferation (34%) and the viability of keratinocytes (25%) as compared to control, and decreased the apoptosis (49%).

in vivo = settings: female, Swiss-Webster, mouse, iv
Experimental: (§1) Maximum tolerated doses of di-rhamnolipid W3CTS were administered intravenously in female Swiss-Webster mice.
(§2) Female Swiss-Webster mice obtained from the Houston, Tex. site Harlan Sprague Dawley, Inc were used in the study. All mice were divided into 6 groups. The vehicle and Di-rhamnolipid W3CTS were administered as an intravenous bolus, via tail vein, beginning with lowest dose level (75 mg/kg). […] In this study, the maximum tolerated dose of di-rhamnolipid W3CTS in female Swiss-Webster mice was 120 mg/kg. Three mice (LD50) of the next higher dose tested (135 /mg/kg) died immediately upon administration.

[5] = system: female Swiss-Webster mice; experiment: in vivo; settings: mouse
Experimental: as §1, §2

C. albicans = experiment: Immunorestoration activity: cyclophosphamide immunosuppression and C. albicans challenge; assay type: in vivo, mouse; settings: 100 mg/kg i/p days 1, 3, 5, cyclophosphamide 30 mg/kg p/o days 2, 4, 6
Experimental: Di-rhamnolipid W3CTS was administered i/p. (100 mg/kg) to groups of ICR derived male mice weighing 22±2 g on days 1, 3, and 5, with the immunosuppressant cyclophosphamide (30 mg/kg p/o.) administered on days 2, 4, and 6. One day after the last immunosuppressant dose, the mice were challenged with a suspension of C. Albicans sufficient to result in 90-100% mortality within 10 days in vehicle treated animals. Survival of 30 percent or more (≧30) of the animals was considered significant and indicated possible immunorestoration activity. Reference agent was lipopolysaccharide 0.3 mg/kg i/p.

For `CCCCCCCC(CC(=O)O)OC(=O)CC(CCCCCCC)OC1OC(C)C(O)C(O)C1OC1OC(C)C(O)C(O)C1O` (stereo not drawn) [Di-rhamnolipid W3CTS], the increase of monocytes (female and male mice; after 4th day and 29th) was “up to 100%”, the “increase of neutrophils in blood” value (female and male mice; after 29 days) was 43.61% and the decrease of lymphocytes (female and male mice; fourth day) was 24.15%. For the same compound, the “increase of neutrophils in blood” value (female and male mice; fourth day) was 51.77%, the decrease of lymphocytes (female and male mice; twenty nine days) was 24.60% and the “decrease of collagen content in burn wounds vs vehicle” value ([1]; 0, 1% in eucerine, biopsies at end of 45th day, p<0.05) was 47.5%. For the same compound, the “acceleration of closure of wounds vs control” value ([1]; 0.1% in eucerine ointment, 2 per day topical, day 21, p<0.05) was 32%, the wound closure ([1]; 0.1% ointment, day 35) was “wounds closed in all animals” and the MORTAL. ([2]; 0.012 mg/kg/day s.c.) was 0/3. The “SIGNIFICANT FINDINGS” value ([2]; 0.012 mg/kg/day s.c.) was “None”, the MORTAL. ([2]; 1.20 mg/kg/day s.c.) was 0/3 and the “SIGNIFICANT FINDINGS” value ([2]; 1.20 mg/kg/day s.c.) was “None”. The MORTAL. ([2]; 60 mg/kg/day s.c.) was 0/3, the “Histopathology: extramedullary hematopoiesis (mice)” value ([2]; 120 mg/kg/day s.c.) was “mouse, extramedullary hematopoiesis in 2” and the “Histopathology: thymic involution (mice)” value ([2]; 120 mg/kg/day s.c.) was “Histopathology: thymic involution in 1”. For the same compound, the “Necroscopy findings: adhesions between the liver and the spleen, kidneys and peritoneum (mice)” value ([2]; 120 mg/kg/day s.c.) was “spleen, kidneys and peritoneum (1/3”, the MORTAL. ([2]; 120 mg/kg/day s.c.) was 0/3 and the “decrease in inflammation (overall)” value ([3]; 1 mg/ml topical, maximal effect) was “up to 32%”. The topical anti-inflammatory efficacy ([3]; 1 mg/ml, 1.0% w/v, single topical administration, 24 hours time-course) was “effective as a topical therapeutic anti-inflammatory agent”, the “inhibition of inflammation, concurrent treatment” value ([3]; at 6 hours) was “about 32%” and the “reversal of established inflammation, post treatment” value ([3]; at 11 hours, given 2 hours after induction) was 32%. The “protective effect, pretreatment” value ([3]; given one hour prior to induced inflammation) was “short duration as a protective agent”, the Ames test (Ames test) was “negative” and the “decrease of apoptosis of keratinocytes” value ([4]; 50 μg/ml, serum, high calcium) was 49%. The “stimulation of proliferation of keratinocytes vs control” value ([4]; 50 μg/ml, serum, high calcium) was 34%, the “stimulation of viability of keratinocytes vs control” value ([4]; 50 μg/ml, serum, high calcium) was 25% and the “cell proliferation and viability, keratinocytes” value ([4]; 200 μg/ml and 500 μg/ml, causing necrosis) was “fully inhibited cell proliferation and viability”. For the same compound, the “proliferation and viability of keratinocytes” value ([4]; without serum, low calcium, 100 μg/ml, caused necrosis) was “fully inhibited proliferation and viability”, the LD50 at 14 day (in vivo) was 135 mg/kg and the MTD at 14 day (in vivo) was 120 mg/kg. The “gross abnormalities at necropsy” value [5] was “no gross abnormalities”, the “tail finding, higher dose groups” value [5] was “scabbing and necrosis of tails” and the “immunorestoration activity (survival of 30 percent or more considered significant)” value (C. albicans) was “possible very significant immunorestoration activity”.
